The values below are quoted from earlier work in patent US20250064843A1, “METHOD AND MEDICAMENT FOR TREATING AMYOTROPHIC LATERAL SCLEROSIS” (4B TECHNOLOGIES (BEIJING) CO., LIMITED, priority 2021, published 2025).

In brackets after ≈: the same amount, converted by molar mass.

Data set [1] concerns the target IGF1R (Homo sapiens, UniProt P08069). Particulars: for IGF1R.
The subject of data set [2] is proliferation. Particulars: for proliferation.
Data set [3] deals with mouse leukemia cells. Particulars: on mouse leukemia cells.
Data set [4] has as its system ALS-mimic mouse model. Particulars: NR3C1 antagonist.
Data set [5] deals with T1, KCNC1 (Homo sapiens, UniProt P48547).
T1 sequence (P48547 1-511): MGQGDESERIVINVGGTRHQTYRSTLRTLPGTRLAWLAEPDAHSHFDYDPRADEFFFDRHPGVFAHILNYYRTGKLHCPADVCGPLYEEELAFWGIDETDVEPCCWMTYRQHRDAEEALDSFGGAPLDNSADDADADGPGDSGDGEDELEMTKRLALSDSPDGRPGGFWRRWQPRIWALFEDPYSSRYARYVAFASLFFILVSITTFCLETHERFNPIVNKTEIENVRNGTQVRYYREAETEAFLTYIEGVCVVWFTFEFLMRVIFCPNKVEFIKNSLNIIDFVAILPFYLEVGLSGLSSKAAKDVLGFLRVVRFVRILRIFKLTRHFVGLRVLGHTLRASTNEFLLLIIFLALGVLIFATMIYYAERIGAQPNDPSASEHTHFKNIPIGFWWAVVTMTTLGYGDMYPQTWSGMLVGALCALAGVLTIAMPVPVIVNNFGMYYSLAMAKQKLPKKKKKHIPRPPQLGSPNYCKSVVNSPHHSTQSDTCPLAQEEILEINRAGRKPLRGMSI
Conditions: for KCNC1.

Data set [6] relates to leukemia cells. Particulars: on leukemia cells at 24 h.
For data set [7], the system named is human neutrophils. Particulars: in human neutrophils.
The target in data set [8] is T2, NR3C1 (Homo sapiens, UniProt P04150).
T2 sequence (P04150 1-777): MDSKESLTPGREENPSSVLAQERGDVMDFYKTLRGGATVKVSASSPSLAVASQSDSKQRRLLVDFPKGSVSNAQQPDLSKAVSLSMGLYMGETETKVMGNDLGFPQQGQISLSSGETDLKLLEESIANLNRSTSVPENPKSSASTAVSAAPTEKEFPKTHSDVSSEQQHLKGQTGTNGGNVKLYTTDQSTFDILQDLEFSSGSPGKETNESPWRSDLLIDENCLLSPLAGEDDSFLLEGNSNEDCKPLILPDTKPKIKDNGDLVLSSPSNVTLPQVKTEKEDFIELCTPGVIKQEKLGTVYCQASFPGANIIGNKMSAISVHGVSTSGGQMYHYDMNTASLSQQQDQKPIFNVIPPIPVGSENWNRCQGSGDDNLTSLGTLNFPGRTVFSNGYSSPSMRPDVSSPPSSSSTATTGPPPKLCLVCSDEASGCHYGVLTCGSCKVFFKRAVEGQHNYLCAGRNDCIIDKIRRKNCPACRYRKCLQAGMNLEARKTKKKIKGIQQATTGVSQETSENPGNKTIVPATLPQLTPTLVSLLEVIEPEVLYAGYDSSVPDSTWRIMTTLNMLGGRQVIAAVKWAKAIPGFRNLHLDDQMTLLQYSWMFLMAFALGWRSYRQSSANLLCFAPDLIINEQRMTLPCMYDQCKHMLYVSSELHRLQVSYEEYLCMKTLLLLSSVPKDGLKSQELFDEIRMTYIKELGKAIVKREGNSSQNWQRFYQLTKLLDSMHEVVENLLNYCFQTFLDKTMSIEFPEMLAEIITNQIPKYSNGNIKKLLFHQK
Particulars: for NR3C1; retrieved from Selleckchem.com.

Data set [9] has as its system ALS patients. Conditions: NR3C1 agonists.

Sequence of IGF1R (P08069 31-1367): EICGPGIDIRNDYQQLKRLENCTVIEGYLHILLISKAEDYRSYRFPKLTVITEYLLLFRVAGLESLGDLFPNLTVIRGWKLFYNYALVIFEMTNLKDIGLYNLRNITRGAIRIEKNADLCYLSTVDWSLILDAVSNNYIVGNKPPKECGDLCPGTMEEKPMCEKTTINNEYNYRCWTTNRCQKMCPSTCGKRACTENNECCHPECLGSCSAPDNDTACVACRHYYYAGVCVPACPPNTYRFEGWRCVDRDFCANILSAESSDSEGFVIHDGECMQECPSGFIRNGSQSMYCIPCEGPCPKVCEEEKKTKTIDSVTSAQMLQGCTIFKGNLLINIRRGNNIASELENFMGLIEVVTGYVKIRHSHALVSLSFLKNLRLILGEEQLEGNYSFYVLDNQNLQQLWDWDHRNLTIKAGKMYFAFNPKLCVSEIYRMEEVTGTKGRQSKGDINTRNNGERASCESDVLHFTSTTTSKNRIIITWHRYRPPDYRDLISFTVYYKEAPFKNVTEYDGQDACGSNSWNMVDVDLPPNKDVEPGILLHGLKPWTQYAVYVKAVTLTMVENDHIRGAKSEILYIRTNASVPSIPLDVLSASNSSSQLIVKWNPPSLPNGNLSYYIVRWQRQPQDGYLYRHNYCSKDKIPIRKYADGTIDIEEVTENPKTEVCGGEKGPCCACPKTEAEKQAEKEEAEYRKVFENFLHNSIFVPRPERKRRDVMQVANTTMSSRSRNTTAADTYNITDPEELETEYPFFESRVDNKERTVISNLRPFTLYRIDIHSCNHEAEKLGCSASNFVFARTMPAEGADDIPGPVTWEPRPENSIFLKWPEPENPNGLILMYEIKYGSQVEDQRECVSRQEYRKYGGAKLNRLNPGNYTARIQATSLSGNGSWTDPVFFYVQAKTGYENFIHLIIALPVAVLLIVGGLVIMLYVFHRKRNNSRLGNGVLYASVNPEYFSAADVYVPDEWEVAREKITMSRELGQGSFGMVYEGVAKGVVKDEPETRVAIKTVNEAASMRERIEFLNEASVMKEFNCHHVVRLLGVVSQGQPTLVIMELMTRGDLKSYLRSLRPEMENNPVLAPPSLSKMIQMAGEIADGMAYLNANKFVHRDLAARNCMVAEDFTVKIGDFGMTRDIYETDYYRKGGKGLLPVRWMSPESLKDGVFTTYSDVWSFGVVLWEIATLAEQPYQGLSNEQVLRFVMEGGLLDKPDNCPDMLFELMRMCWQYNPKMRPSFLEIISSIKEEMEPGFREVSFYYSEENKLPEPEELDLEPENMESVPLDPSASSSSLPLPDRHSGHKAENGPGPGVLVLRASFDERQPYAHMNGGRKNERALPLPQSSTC

Take `COc1cc([C@@H]2c3cc4c(cc3[C@H](O)[C@H]3COC(=O)[C@@H]23)OCO4)cc(OC)c1OC` [AXL-1717, picropodophyllin]: the IC50 in [1] was 1 nM. On to `COc1cc(C)c(/C=C/C(C)=C/C=C/C(C)=C/C(=O)O)c(C)c1C` [Acitretin, (2E,4E,6E,8E)-9-(4-methoxy-2,3,6-trimethylphenyl)-3,7-dimethylnona-2,4,6,8-tetraenoic acid], for which the IC50 in data set [2] is 6.6 µM. Consider `Nc1ncn([C@@H]2O[C@H](CO)[C@@H](O)[C@H]2O)c(=O)n1` [Azacitidine, 5-azacytidine], for which, in data set [3], the IC50 was 0.019 µg/mL (≈ 0.0778 µM). Take `O=C(c1ccccn1)[C@]12Cc3cnn(-c4ccc(F)cc4)c3C=C1CCN(S(=O)(=O)c1ccc(C(F)(F)F)cc1)C2` [CORT113176]: the “effect on pro-inflammatory factors” value in [4] was “reducing the expression and origin of pro-inflammatory factors”.

Regarding `Nc1ccncc1` [Dalfampridine, 4-aminopyridine], in [5], the IC50 was 29 µM. For `Nc1ncn([C@H]2C[C@H](O)[C@@H](CO)O2)c(=O)n1` [Decitabine, 5-aza-2′-deoxycytidine], the IC50 in [6] is 100 nM. In the case of `CC(CCc1ccccc1)NCC(O)c1ccc(O)c(C(N)=O)c1` (stereo not drawn) [Labetalol], in [7], the IC50 was 13.2 mg/L in. Take `CC#C[C@]1(O)CCC2C3CCC4=CC(=O)CCC4=C3[C@@H](c3ccc4c(c3)OCO4)C[C@@]21C` (stereo partly drawn) [ORG-34517]: in data set [8], the IC50 was 17.9 nM. As to `C[C@]12C=CC(=O)C=C1CC[C@@H]1[C@@H]2C(=O)C[C@@]2(C)[C@H]1CC[C@]2(O)C(=O)CO` [prednisone], in data set [9], the “response to immunosuppression therapy” value is reported as “none of the patients reached the pre-defined responder criteria”.
